Measurements from ChEMBL document CHEMBL1201862, “PubChem BioAssay data set” (2004).
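Grown in 96-well plates, cells were treated for 48 hours with each compound at five concentrations. Insufficient inhibition: endpoint recorded as highest concentration tested. GI50 = concentration required for 50% inhibition of growth.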 Active and inactive are the calls of the source. Cut-off read from the data, not from the text of the source: active = GI50 up to about 1.1 µM and inactive = higher.

Experiments:
Test in all cases: NCI anticancer screen, dose series, 48 h
[1] = system: UACC-257
[2] = system: NCI-H226
[3] = system: SR
[4] = system: SNB-19
[5] = system: NCI-H522
[6] = system: SK-MEL-2
[7] = system: SW-620
[8] = system: HCT-116
[9] = system: HOP-62
[10] = system: M14
[11] = system: OVCAR-8
[12] = system: SK-MEL-5
[13] = system: SF-295
[14] = system: KM12
[15] = system: U-251
[16] = system: COLO 205
[17] = system: SF-539
[18] = system: T47D
[19] = system: MDA-MB-435

Row | Compound | GI50 [1] | GI50 [2] | GI50 [3] | GI50 [4] | GI50 [5] | GI50 [6] | GI50 [7] | GI50 [8] | GI50 [9] | GI50 [10] | GI50 [11] | GI50 [12] | GI50 [13] | GI50 [14] | GI50 [15] | GI50 [16] | GI50 [17] | GI50 [18] | GI50 [19]
1 | CC(=O)CC(=O)NC=O | > 100 µM (inactive) | > 100 µM (inactive) | > 100 µM (inactive) | > 100 µM (inactive) | > 100 µM (inactive) | > 100 µM (inactive) | > 100 µM (inactive) | > 100 µM (inactive) | > 100 µM (inactive) | > 100 µM (inactive) | > 100 µM (inactive) | > 100 µM (inactive) | > 100 µM (inactive) | > 100 µM (inactive) | > 100 µM (inactive) | > 100 µM (inactive) | > 100 µM (inactive) | – | –
2 | C/C(=C\c1ccccc1)C(=O)c1c(C)cc(C)cc1C | > 100 µM (inactive) | > 100 µM (inactive) | > 100 µM (inactive) | > 100 µM (inactive) | > 100 µM (inactive) | > 100 µM (inactive) | > 100 µM (inactive) | > 100 µM (inactive) | > 100 µM (inactive) | > 100 µM (inactive) | > 100 µM (inactive) | > 100 µM (inactive) | > 100 µM (inactive) | > 100 µM (inactive) | > 100 µM (inactive) | > 100 µM (inactive) | > 100 µM (inactive) | – | –
3 | CC[C@@H]1OC2(C)CC(S(=O)(=O)c3ccccc3)CC1O2 (stereo partly drawn) | > 100 µM (inactive) | > 100 µM (inactive) | > 100 µM (inactive) | > 100 µM (inactive) | > 100 µM (inactive) | > 100 µM (inactive) | > 100 µM (inactive) | > 100 µM (inactive) | > 100 µM (inactive) | > 100 µM (inactive) | > 100 µM (inactive) | > 100 µM (inactive) | > 100 µM (inactive) | > 100 µM (inactive) | > 100 µM (inactive) | > 100 µM (inactive) | > 100 µM (inactive) | – | –
4 | CN(C)c1ccc(/C=C(/NC(=O)c2ccccc2)c2nc3cc(Cl)ccc3[nH]2)cc1 | 20.3 µM (inactive) | 30.8 µM (inactive) | 30.3 µM (inactive) | 45.1 µM (inactive) | 22 µM (inactive) | 37.1 µM (inactive) | 10.4 µM (inactive) | 37.8 µM (inactive) | > 100 µM (inactive) | 32.7 µM (inactive) | 35.3 µM (inactive) | 21.6 µM (inactive) | 28 µM (inactive) | 15.6 µM (inactive) | 35.5 µM (inactive) | 20.7 µM (inactive) | 55.8 µM (inactive) | – | –
5 | CCOc1cc2c(=O)oc3c(OC)ccc4ccc(c1OC)c2c43 | > 100 µM (inactive) | 60 µM (inactive) | – | 59.2 µM (inactive) | 16.7 µM (inactive) | > 100 µM (inactive) | > 100 µM (inactive) | 6.64 µM (inactive) | 46.5 µM (inactive) | 45.3 µM (inactive) | 25.2 µM (inactive) | > 100 µM (inactive) | 96.8 µM (inactive) | > 100 µM (inactive) | 34.5 µM (inactive) | > 100 µM (inactive) | > 100 µM (inactive) | > 100 µM (inactive) | > 100 µM (inactive)
6 | CCC1(O)C(=O)OCc2c1cc1n(c2=O)Cc2cc3ccc(CO)cc3nc2-1 (stereo not drawn) | 12.2 µM (inactive) | 1.59 µM (inactive) | 0.0646 µM (active) | 1.93 µM (inactive) | 1.64 µM (inactive) | 18 µM (inactive) | 7.52 µM (inactive) | 4.85 µM (inactive) | 0.566 µM (active) | 3.59 µM (inactive) | 2.62 µM (inactive) | 3.08 µM (inactive) | 3.18 µM (inactive) | 9.35 µM (inactive) | 0.705 µM (active) | 14.2 µM (inactive) | 1.42 µM (inactive) | – | –
